Reference: patent US20240252650A1, “LIPID COMPOUNDS AND LIPID NANOPARTICLE COMPOSITIONS” (SUZHOU ABOGEN BIOSCIENCES CO., LTD., priority 2021, published 2024)

Key:
[1] = Apparent pKa of LNP formulations by TNS fluorescence assay; format: physicochemical; conditions: LNP cationic lipid/DSPC/cholesterol/DMG-PEG 50/10/38.5/1.5 mol %
Procedure: As reported in literature, the apparent pKa of LNP formulations correlates with the delivery efficiency of LNPs for nucleic acids in vivo. The apparent pKa of each formulation was determined using an assay based on fluorescence of 2-(p-toluidino)-6-napthalene sulfonic acid (TNS). LNP formulations comprising of cationic lipid/DSPC/cholesterol/DMG-PEG (50/10/38.5/1.5 mol %) in PBS were prepared as described above. TNS was prepared as a 300 uM stock solution in distilled water. LNP formulations were diluted to 0.1 mg/ml total lipid in 3 mL of buffered solutions containing 50 mM sodium citrate, 50 mM sodium phosphate, 50 mM sodium borate, and 30 mM sodium chloride where the pH ranged from 3 to 9. An aliquot of the TNS solution was added to give a final concentration of 0.1 mg/ml and following vortex mixing fluorescence intensity was measured at room temperature in a Molecular Devices Spectramax iD3 spectrometer using excitation and mission wavelengths of 325 nm and 435 nm. A sigmoidal best fit analysis was applied to the fluorescence data and the pKa value was measured as the pH giving rise to half-maximal fluorescent intensity.

[2] = Encapsulation efficiency of lipid nanoparticles (Quant-it Ribogreen RNA quantification assay); format: physicochemical
Procedure: (§1) Briefly, a cationic lipid provided herein, DSPC, cholesterol, and PEG-lipid were solubilized in ethanol at a molar ratio of 50:10:38.5:1.5, and mRNA were diluted in 10 to 50 mM citrate buffer, pH=4. The LNPs were prepared at a total lipid to mRNA weight ratio of approximately 10:1 to 30:1 by mixing the ethanolic lipid solution with the aqueous mRNA solution at a volume ratio of 1:3 using a microfluidic apparatus, total flow rate ranging from 9-30 mL/min. Ethanol were thereby removed and replaced by DPBS using dialysis. Finally, the lipid nanoparticles were filtered through a 0.2 μm sterile filter.
(§2) Lipid nanoparticle size were determined by dynamic light scattering using a Malvern Zetasizer Nano ZS (Malvern UK) using a 173° backscatter detection mode. The encapsulation efficiency of lipid nanoparticles were determined using a Quant-it Ribogreen RNA quantification assay kit (Thermo Fisher Scientific, UK) according to the manufacturer's instructions.

[3] = Lipid nanoparticle size and polydispersity by dynamic light scattering (Malvern Zetasizer Nano ZS); format: physicochemical
Procedure: as §1, §2

[4] = tested on: female Balb/c mice; test: Animal study: LNPs encapsulating luciferase mRNA, tail vein injection, organ bioluminescence imaging (IVIS Spectrum CT); format: in vivo; conditions: luciferase mRNA LNP, 0.25 mg/kg tail vein; for bone marrow* Avg Radiance: bone marrow at 6 h; for brain* Avg Radiance: dissected brain at 6 h; for heart* Avg Radiance: dissected heart at 6 h; for kidney* Avg Radiance: dissected kidney at 6 h; for liver* Avg Radiance: dissected liver at 6 h; for lung* Avg Radiance: dissected lung at 6 h; for spleen* Avg Radiance: dissected spleen at 6 h
Procedure: Lipid nanoparticles comprising certain compounds provided herein encapsulating luciferase encoding (luciferase) mRNA were systemically administered to 6-8 week old female Balb/c mice (Charles River Lab, ZheJiang) at 0.25 mg/kg dose by tail vein injection, and mice blood were sampled at specific time points (e.g., 6 hours) post administration. Optical imaging was performed using the IVIS Spectrum CT device (PerkinElmer Inc., Paris, France). The luminescence level was evaluated by an ROI applied to the injection site zone (Living Image software, PerkinElmer Inc., Paris, France).
Radiance of heart, liver, spleen, lung, kidney, brain and bone marrow were taken at 6 h. Dissected organs were placed on a black sheet and imaged with IVIS Spectrum CT (PerkinElmer, Hopkinton, MA). To quantify bioluminescence emission signal, identical regions of interest (ROI) were positioned to encircle each organ region, the imaging signal was quantitated as average radiance (photons/s/cm2/steradian).

[5] = LNP: cationic lipid/DSPC/cholesterol/PEG-lipid 50:10:38.5:1.5, mRNA, table of Example 15
[6] = LNP encapsulating hEPO mRNA, table of Example 16

CCCCC/C=C\C/C=C\CCCCCCCC(=O)OCC(COC(=O)CCCCN(CCOCCO)C1CCC1)COC(=O)CCCC(COC(=O)CCCCCCC)COC(=O)CCCCCCC (centres unmarked) [Compound 125]
Apparant Pka ([1]; table of Example 15): 6.863
Encapsulation Efficiency [2, 5]: 87.71%
polydispersity [3, 5]: 0.025
size (nm) [3, 5]: 83.81 nm
bone marrow* Avg Radiance [4]: −0.94 E+04 p/s/cm^2/sr
brain* Avg Radiance [4]: 4.61 E+04 p/s/cm^2/sr
heart* Avg Radiance [4]: 5.27 E+04 p/s/cm^2/sr
kidney* Avg Radiance [4]: 8.4 E+04 p/s/cm^2/sr
liver* Avg Radiance [4]: 16.61 E+06 p/s/cm^2/sr
lung* Avg Radiance [4]: 7.67 E+04 p/s/cm^2/sr
spleen* Avg Radiance [4]: 2.24 E+06 p/s/cm^2/sr

CCCCC/C=C\C/C=C\CCCCCCCC(=O)OCC(COC(=O)CCCCCCC/C=C\C/C=C\CCCCC)COC(=O)CCCCCCCN(CCO)C1CCC1 [Compound 124]
Apparant Pka ([1]; table of Example 15): 7.1
Encapsulation Efficiency [2, 5]: 90.85%
polydispersity [3, 5]: 0.078
size (nm) [3, 5]: 90.89 nm
luciferase expression in bone marrow (in words) ([4]; 6 h): mild expression
bone marrow* Avg Radiance [4]: 2.2 E+04 p/s/cm^2/sr
brain* Avg Radiance [4]: 16.34 E+04 p/s/cm^2/sr
heart* Avg Radiance [4]: 32.73 E+04 p/s/cm^2/sr
kidney* Avg Radiance [4]: 34.36 E+04 p/s/cm^2/sr
liver* Avg Radiance [4]: 47.09 E+06 p/s/cm^2/sr
lung* Avg Radiance [4]: 16.04 E+04 p/s/cm^2/sr
spleen* Avg Radiance [4]: 11.21 E+06 p/s/cm^2/sr

CCCCC/C=C\C/C=C\CCCCCCCC(=O)OCC(COC(=O)CCC(OCCCCCCCC)OCCCCCCCC)COC(=O)OCCCN(CCO)C1CCC1 (centres unmarked) [Compound 115]
Apparant Pka ([1]; table of Example 15): 6.499
Encapsulation Efficiency [2, 5]: 91.21%
polydispersity [3, 5]: 0.033
size (nm) [3, 5]: 71.59 nm
bone marrow* Avg Radiance [4]: −0.66 E+04 p/s/cm^2/sr
brain* Avg Radiance [4]: 14.59 E+04 p/s/cm^2/sr
heart* Avg Radiance [4]: 13.74 E+04 p/s/cm^2/sr
kidney* Avg Radiance [4]: 27.83 E+04 p/s/cm^2/sr
liver* Avg Radiance [4]: 44.21 E+06 p/s/cm^2/sr
lung* Avg Radiance [4]: 7.01 E+04 p/s/cm^2/sr
spleen* Avg Radiance [4]: 1.06 E+06 p/s/cm^2/sr

CCCCCCCCCCC(=O)OCC(COC(=O)CCCCCCN(CCO)C1CCC1)COC(=O)CCCC(COC(=O)CCCCCCC)COC(=O)CCCCCCC (centres unmarked) [Compound 50]
Apparant Pka ([1]; table of Example 16): 7.175
Encapsulation Efficiency [2, 6]: 91.68%
polydispersity [3, 6]: 0.158
size (nm) [3, 6]: 89.62 nm

CCCCCCCCC(=O)OCC(COC(=O)CCCCCN(CCO)C1CCC1)COC(=O)CCCC(COC(=O)CCCCCCC)COC(=O)CCCCCCC (centres unmarked) [Compound 45]
Apparant Pka ([1]; table of Example 16): 6.965
Encapsulation Efficiency [2, 6]: 90.08%
polydispersity [3, 6]: 0.067
size (nm) [3, 6]: 144.2 nm

C=CCN(CCO)CCCCC(=O)OCC(COC(=O)CCCCCCCCCCCCCCCCC)COC(=O)CCCC(COC(=O)CCCCCCC)COC(=O)CCCCCCC (centres unmarked) [Compound 84]
Apparant Pka ([1]; table of Example 16): 6.597
Encapsulation Efficiency [2, 6]: 92.56%
polydispersity [3, 6]: 0.069
size (nm) [3, 6]: 84.76 nm

CCCCCCCCC(CCCCCCCC)COC(=O)CCOCC(COCCC(=O)OCC(CCCCCCCC)CCCCCCCC)COC(=O)CCCCN(CCO)C1CCC1 [Compound 100]
Apparant Pka ([1]; table of Example 16): 6.535
Encapsulation Efficiency [2, 6]: 91.54%
polydispersity [3, 6]: 0.02588
size (nm) [3, 6]: 67.27 nm

CCCCC/C=C\C/C=C\CCCCCCCC(=O)OCC(COC(=O)CCCCN(CCO)C1CCC1)COC(=O)CCCC(COC(=O)CCCCCCC)COC(=O)CCCCCCC (centres unmarked) [Compound 4]
Apparant Pka ([1]; table of Example 16): 6.881
Encapsulation Efficiency [2, 6]: 91.42%
polydispersity [3, 6]: 0.090
size (nm) [3, 6]: 93.73 nm

CCCCC/C=C\C/C=C\CCCCCCCC(=O)OCC(COC(=O)CCCC(COC(=O)CCCCCCC)COC(=O)CCCCCCC)COC(=O)OCCCN(CCC)CCO (centres unmarked) [Compound 87]
Apparant Pka ([1]; table of Example 16): 6.384
Encapsulation Efficiency [2, 6]: 93.62%
polydispersity [3, 6]: 0.034
size (nm) [3, 6]: 99.16 nm

CCCCCCCCCCCCC(=O)OCC(COC(=O)CCCCCCN(CCO)C1CCC1)COC(=O)CCCC(COC(=O)CCCCCCC)COC(=O)CCCCCCC (centres unmarked) [Compound 64]
Apparant Pka ([1]; table of Example 16): 6.837
Encapsulation Efficiency [2, 6]: 87.35%
polydispersity [3, 6]: 0.196
size (nm) [3, 6]: 105.4 nm

CCCCC/C=C\C/C=C\CCCCCCCC(=O)OCC(COC(=O)CCCC(COC(=O)CCCCCCC)COC(=O)CCCCCCC)COC(=O)OCCCN(CCO)C1CCC1 (centres unmarked) [Compound 34]
Apparant Pka ([1]; table of Example 16): 6.307
Encapsulation Efficiency [2, 6]: 89.00%
polydispersity [3, 6]: 0.049
size (nm) [3, 6]: 82.63 nm

CCCCC/C=C\C/C=C\CCCCCCCC(=O)OCC(COC(=O)CCCC(COC(=O)CCCCCCC)COC(=O)CCCCCCC)OC(=O)CCCCN(CCO)C1CCCCC1 (centres unmarked) [Compound 107]
Apparant Pka ([1]; table of Example 16): 6.441
Encapsulation Efficiency [2, 6]: 89.61%
polydispersity [3, 6]: 0.04979
size (nm) [3, 6]: 66.11 nm

CCCCCCCCC(=O)OCC(COC(=O)CCCCCCCN(CCO)C1CCC1)COC(=O)CCCC(COC(=O)CCCCCCC)COC(=O)CCCCCCC (centres unmarked) [Compound 46]
Apparant Pka ([1]; table of Example 16): 7.088
Encapsulation Efficiency [2, 6]: 89.87%
polydispersity [3, 6]: 0.069
size (nm) [3, 6]: 158.9 nm

CCCCC/C=C\C/C=C\CCCCCCCC(=O)OCC(COC(=O)CCCC(COC(=O)CCCCCCC)COC(=O)CCCCCCC)COC(=O)OCCCN(CCO)CCCC (centres unmarked) [Compound 105]
Apparant Pka ([1]; table of Example 16): 6.262
Encapsulation Efficiency [2, 6]: 89.77%
polydispersity [3, 6]: 0.06244
size (nm) [3, 6]: 80.11 nm

CCCCC/C=C\C/C=C\CCCCCCCC(=O)OCC(COC(=O)CCCCCCCN(CCO)C1CCC1)COC(=O)CCCC(COC(=O)CCCCCCC)COC(=O)CCCCCCC (centres unmarked) [Compound 43]
Apparant Pka ([1]; table of Example 16): 6.766
Encapsulation Efficiency [2, 6]: 93.46%
polydispersity [3, 6]: 0.04
size (nm) [3, 6]: 95.19 nm

CCCCCCCCCC(=O)OCC(COC(=O)CCCCCN(CCO)C1CCC1)COC(=O)CCCC(COC(=O)CCCCCCC)COC(=O)CCCCCCC (centres unmarked) [Compound 58]
Apparant Pka ([1]; table of Example 16): 6.97
Encapsulation Efficiency [2, 6]: 77.87%
polydispersity [3, 6]: 0.129
size (nm) [3, 6]: 104.3 nm
